These results are taken from PubChem BioAssay AID1259407 (Chemical Carcinogenesis Research Information System (CCRIS), 2018).

This series concerns CCRIS mutagenicity, Ames/micronucleus/aberration tests. As to the kind of experiment: CCRIS mutagenicity studies. The settings on record: Test System: AMES SALMONELLA TYPHIMURIUM
Setting [1] is: Strain/Indicator: TA100, Metabolic Activation: RAT, LIVER, S-9, AROCLOR 1254, Method: PREINCUBATION
[2] abbreviates: Strain/Indicator: TA100, Metabolic Activation: NONE, Method: PREINCUBATION

Calls of active or inactive are those of the source. No rule for the calls is given here.

With `CC(=O)NC[C@@H](O)COc1cccc2ccccc12`, the mutagenic call is “inactive; negative” (Strain/Indicator: TA98, Metabolic Activation: RAT, LIVER, S-9, AROCLOR 1254, Method: PREINCUBATION); “inactive; negative” under setting [1]; “inactive; negative” (Strain/Indicator: TA102, Metabolic Activation: RAT, LIVER, S-9, AROCLOR 1254, Method: PREINCUBATION); “inactive; negative” (Strain/Indicator: TA104, Metabolic Activation: RAT, LIVER, S-9, AROCLOR 1254, Method: PREINCUBATION); “inactive; negative” (Strain/Indicator: TA1535, Metabolic Activation: RAT, LIVER, S-9, AROCLOR 1254, Method: PREINCUBATION); “inactive; negative” (Strain/Indicator: TA1538, Metabolic Activation: RAT, LIVER, S-9, AROCLOR 1254, Method: PREINCUBATION). Further, the mutagenic call was “inactive; negative” (Strain/Indicator: YG1021, Metabolic Activation: RAT, LIVER, S-9, AROCLOR 1254, Method: PREINCUBATION); “inactive; negative” (Strain/Indicator: YG1024, Metabolic Activation: RAT, LIVER, S-9, AROCLOR 1254, Method: PREINCUBATION); “inactive; negative” (Strain/Indicator: YG1026, Metabolic Activation: RAT, LIVER, S-9, AROCLOR 1254, Method: PREINCUBATION); “inactive; negative” (Strain/Indicator: YG1029, Metabolic Activation: RAT, LIVER, S-9, AROCLOR 1254, Method: PREINCUBATION); “inactive; negative” (Strain/Indicator: YG1041, Metabolic Activation: RAT, LIVER, S-9, AROCLOR 1254, Method: PREINCUBATION); “inactive; negative” (Strain/Indicator: YG1042, Metabolic Activation: RAT, LIVER, S-9, AROCLOR 1254, Method: PREINCUBATION). For the same molecule, for the setting “Strain/Indicator: YG3003, Metabolic Activation: RAT, LIVER, S-9, AROCLOR 1254, Method: PREINCUBATION”, the mutagenic call was “inactive; negative”.
`CNc1ccc2ncc(C)nc2c1C`: the mutagenic call (Strain/Indicator: TA98, Metabolic Activation: NONE, Method: PREINCUBATION) is “inactive; negative”; the mutagenic call (Strain/Indicator: TA98, Metabolic Activation: RAT, LIVER, S-9, PCB, Method: PREINCUBATION) is “active; positive”; the mutagenic call under setting [2] is “inactive; negative”; the mutagenic call (Strain/Indicator: TA100, Metabolic Activation: RAT, LIVER, S-9, PCB, Method: PREINCUBATION) is “active; positive”.
As to `O=Cc1ccc([N+](=O)[O-])o1`, the mutagenic call runs as follows: (Strain/Indicator: TA98(1,8-DNP6), Metabolic Activation: NONE, Method: STANDARD PLATE) “active; positive”; (Strain/Indicator: TA98(1,8-DNP6), Metabolic Activation: RAT, LIVER, S-9, 3-METHYLCHOLANTHRENE, Method: STANDARD PLATE) “active; positive”; (Strain/Indicator: TA98(NR), Metabolic Activation: NONE, Method: STANDARD PLATE) “active; positive”; (Strain/Indicator: TA98(NR), Metabolic Activation: RAT, LIVER, S-9, 3-METHYLCHOLANTHRENE, Method: STANDARD PLATE) “active; positive”; (Strain/Indicator: TA98, Metabolic Activation: NONE, Method: STANDARD PLATE) “active; positive”; (Strain/Indicator: TA98, Metabolic Activation: RAT, LIVER, S-9, 3-METHYLCHOLANTHRENE, Method: STANDARD PLATE) “active; positive”. Besides, the mutagenic call runs as follows: (Strain/Indicator: TA100(1,8-DNP6), Metabolic Activation: NONE, Method: PREINCUBATION) “active; positive”; (Strain/Indicator: TA100(1,8-DNP6), Metabolic Activation: RAT, LIVER, S-9, AROCLOR 1254, Method: PREINCUBATION) “active; positive”; (Strain/Indicator: TA100(NR), Metabolic Activation: NONE, Method: PREINCUBATION) “active; positive”; (Strain/Indicator: TA100(NR), Metabolic Activation: RAT, LIVER, S-9, AROCLOR 1254, Method: PREINCUBATION) “active; positive”; under setting [2], “active; positive”; under setting [1], “active; positive”.
Consider `Cc1ccc2ccc3c4ccccc4cc4ccc1c2c43`, for which the mutagenic call (Strain/Indicator: TA100, Metabolic Activation: RAT, INTACT HEPATOCYTES, AROCLOR 1254, Method: PREINCUBATION) is “active; positive” and the mutagenic call (Strain/Indicator: TA100, Metabolic Activation: RAT, NADPH-FORTIFIED HOMOGENIZED HEPATOCYTES, AROCLOR 1254, Method: PREINCUBATION) is “active; positive”.
